The subject of data set [1] is growth hormone secretion. Briefly: 6 hour infusion followed by insulin (hypoglycemia) stimulus. Type of data set: in vivo, human. The conditions noted are these: insulin given at the end, compared to hypoglycemia after vehicle infusion. How it is done:
(§1) In a most recent study the 6 hour infusion was repeated but insulin was given at the end of the infusion to provide an alternate stimulus (hypoglycemia) for growth hormone secretion compared to hypoglycemia after vehicle infusion. […] Next 24 hour infusions of growth hormone releasing factor were performed and the growth hormone and growth hormone releasing factor secretory profile of a patient were studied with ectopic growth hormone releasing factor secretion (Vance et al, J. Clin. Invest., 1985, 75, 1584-1590). In this patient growth hormone secretion was pulsatile despite continuously elevated immunoreactive growth hormone releasing factor levels. To determine if pulsatile growth hormone secretion is maintained in normal subjects, vehicle or growth hormone releasing factor-40, 2 ng/kg/min, was administered to six healthy young men for 24 hours and gave a supramaximal intravenous bolus dose of growth hormone releasing factor-40, 3 μg/kg after 23.5 hours of infusion.

Data set [2] is described as follows: adverse effects of continuous administration. Type of data set: in vivo.
Data set [3] concerns growth hormone secretion. The conditions noted are these: cited from earlier work.
Another data set concerns growth. Particulars: normal rat, cited from earlier work.
Data set [4] has as its system growth hormone secretion. Briefly: 14-day continuous intravenous infusion by mechanical pump, 24 hour growth hormone profile. The class given is in vivo, human. The conditions noted are these: 10 ng/kg/min intravenous over 14 days, 4 subjects. How it is done: Growth hormone releasing factor was administered by mechanical pump which delivered a dose of 10 ng/kg/min by the intravenous route over 14 days in 4 subjects aged 26 to 31 years. The profile of growth hormone secretion was measured over 24 hours before the initiation of the infusion, on the fourteenth day of the infusion, and two weeks after stopping the infusion.

Data set [5] deals with growth hormone secretion. The conditions noted are these: after 6 hours infusions of 1, 3.3 and 10 ng/kg/min; cited from earlier work.
Data set [6] concerns growth hormone secretion. The experiment in a line: 24 hour infusion in healthy young men with supramaximal bolus after 23.5 hours. The class given is in vivo, human. Particulars: 2 ng/kg/min for 24 hours, six healthy young men. How it is done: as §1

In the case of growth hormone releasing factor, the “desensitization to growth hormone releasing factor” value with growth hormone secretion [1] is “partial homologous desensitization”. Also, in data set [2], the “blood pressure, pulse rate, body temperature” value was “No changes in blood pressure, pulse rate, or body temperature” and the side effects entry is “no side effects”. Besides, the “release of growth hormone in response to supramaximal dose at end of infusion” value in the data set with growth hormone secretion [3] (end of the 6 or 24 hour infusion) is “reduced release of growth hormone”. In addition, in the data set with growth hormone secretion [3] (short-term administration (6-24 hours)), the “growth hormone secretion over the duration of the infusion” value is listed as “stimulates growth hormone secretion intermittently”. In addition, in the data set on growth (continuous administration), the “growth, continuous administration” value is “does not”. Also, in the data set with growth (pulsatile administration), the “growth, pulsatile administration” value is reported as “accelerates growth”. The “response to a supramaximal dose of growth hormone releasing factor” value in the data set with growth hormone secretion [4] is on record as “normal or accentuated responses”. Moreover, the growth hormone secretion result in the data set on growth hormone secretion [4] (measured on fourteenth day of infusion) is listed as “augmented growth hormone secretion”. In addition, the “serum Insulin Growth Factor-1 (IGF-1) level” value in the data set with growth hormone secretion [4] (marker of biological activity of growth hormone) is given as “rise in serum Insulin Growth Factor-1 (IGF-1) level”.

For the substance “growth hormone releasing factor-40 (YADAIFTNSYRKVLGQLSARKLLQDIMSRQQGESNQERGA; Somatoliberin; UniProt P01286 32-71, looked up, fragment) [40 amino acid form of human growth hormone releasing factor]”, in the data set on growth hormone secretion [5], the “growth hormone response to supramaximal bolus at end of infusion” value was “inversely related to the 6 hour infusion dose”. Besides, in the data set on growth hormone secretion [6], the “effect on naturally occuring growth hormone pulses” value is recorded as “augmentation of naturally occuring growth hormone pulses”, the “growth hormone secretion compared to vehicle infusion” value is listed as “greater growth hormone secretion than did vehicle infusion” and the “pulsatile growth hormone secretion during infusion” value is given as “pulsatile growth hormone secretion was maintained”.

Source of the values: patent US5036045A, “Method for increasing growth hormone secretion” (The University of Virginia Alumni Patents Foundation, priority 1988, dated 1991).
